Experimental findings from US20140249139A1, “Quinazoline Derivatives” (NOVARTIS AG, priority 2011, published 2014) are described below.

In experiment [1] the target is T1, PI3K delta (Homo sapiens, UniProt O00329).
T1 construct: for the full-length p110-d subunit are generated and fused by overlapping PCR; His tag (C); made in house; host or cells: baculovirus BV1060; Tn5 (Trichoplusia ni) or TiniPro insect cells
As to the kind of experiment: Enzymatic PI3K delta isoform inhibition (lipid kinase activity, Kinase-Glo). The experiment is classed as biochemical. As to conditions: enzymatic assay. As to the method:
(§1) The components of the assay are added per well as follows:
(§2) IC50 is determined by a four parameter curve fitting routine that comes along with “excel fit”.
(§3) Yet alternatively, for an ATP depletion assay, compounds of the formula I to be tested are dissolved in DMSO and directly distributed into a white 384-well plate at 0.5 μl per well. To start the reaction, 10 μl of 10 nM PI3 kinase and 5 μg/ml 1-alpha-phosphatidylinositol (PI) are added into each well followed by 10 μl of 2 μM ATP. The reaction is performed until approx 50% of the ATP is depleted, and then stopped by the addition of 20 μl of Kinase-Glo solution (Promega Corp., Madison, Wis., USA). The stopped reaction is incubated for 5 minutes and the remaining ATP is then detected via luminescence. IC50 values are then determined.

Experiment [2] has as its target T2, PI3K alpha (Homo sapiens, UniProt P42336).
T2 construct: for the p110-a subunit (with a deletion of the first 20 amino acids) are generated; His tag (C); made in house; host or cells: baculovirus BV1075; Tn5 (Trichoplusia ni) or TiniPro insect cells
As to the kind of experiment: Enzymatic PI3K alpha isoform inhibition (lipid kinase activity, Kinase-Glo). As to conditions: enzymatic assay. The experiment is classed as biochemical. As to the method:
as §1, §2, §3

T2 sequence (P42336 with tags, fused parts or gaps limits assumed, species assumed): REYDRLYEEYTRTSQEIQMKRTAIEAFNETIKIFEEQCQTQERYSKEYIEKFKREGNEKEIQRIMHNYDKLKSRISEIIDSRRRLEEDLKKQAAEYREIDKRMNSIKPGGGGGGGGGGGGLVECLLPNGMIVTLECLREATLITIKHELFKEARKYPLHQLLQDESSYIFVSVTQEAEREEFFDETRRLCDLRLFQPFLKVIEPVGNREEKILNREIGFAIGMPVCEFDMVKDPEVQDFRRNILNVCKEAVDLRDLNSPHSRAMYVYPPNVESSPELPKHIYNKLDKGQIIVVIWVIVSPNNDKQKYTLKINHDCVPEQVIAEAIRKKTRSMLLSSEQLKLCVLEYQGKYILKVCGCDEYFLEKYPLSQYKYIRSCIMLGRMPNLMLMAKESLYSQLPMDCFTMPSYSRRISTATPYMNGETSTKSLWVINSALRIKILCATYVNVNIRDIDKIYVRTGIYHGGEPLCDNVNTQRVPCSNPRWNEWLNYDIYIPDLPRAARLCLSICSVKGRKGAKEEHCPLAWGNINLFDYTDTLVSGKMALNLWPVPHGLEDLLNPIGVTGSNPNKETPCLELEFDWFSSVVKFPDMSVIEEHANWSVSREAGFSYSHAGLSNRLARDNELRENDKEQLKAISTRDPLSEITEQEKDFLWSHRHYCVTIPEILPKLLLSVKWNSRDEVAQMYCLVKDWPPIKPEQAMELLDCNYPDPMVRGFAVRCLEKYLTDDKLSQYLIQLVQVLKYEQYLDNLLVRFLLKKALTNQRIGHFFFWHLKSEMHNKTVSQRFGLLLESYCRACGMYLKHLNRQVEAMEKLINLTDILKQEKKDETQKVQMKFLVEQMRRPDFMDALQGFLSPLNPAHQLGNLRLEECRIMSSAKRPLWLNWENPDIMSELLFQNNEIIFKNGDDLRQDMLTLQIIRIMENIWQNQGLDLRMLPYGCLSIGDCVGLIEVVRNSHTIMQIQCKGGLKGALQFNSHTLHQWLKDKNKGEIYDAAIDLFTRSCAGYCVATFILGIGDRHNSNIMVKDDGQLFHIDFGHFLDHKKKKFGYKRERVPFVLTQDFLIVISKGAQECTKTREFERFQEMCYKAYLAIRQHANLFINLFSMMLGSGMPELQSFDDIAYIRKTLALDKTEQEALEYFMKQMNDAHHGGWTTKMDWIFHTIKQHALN
T1 sequence (O00329 with tags, fused parts or gaps limits assumed, species assumed): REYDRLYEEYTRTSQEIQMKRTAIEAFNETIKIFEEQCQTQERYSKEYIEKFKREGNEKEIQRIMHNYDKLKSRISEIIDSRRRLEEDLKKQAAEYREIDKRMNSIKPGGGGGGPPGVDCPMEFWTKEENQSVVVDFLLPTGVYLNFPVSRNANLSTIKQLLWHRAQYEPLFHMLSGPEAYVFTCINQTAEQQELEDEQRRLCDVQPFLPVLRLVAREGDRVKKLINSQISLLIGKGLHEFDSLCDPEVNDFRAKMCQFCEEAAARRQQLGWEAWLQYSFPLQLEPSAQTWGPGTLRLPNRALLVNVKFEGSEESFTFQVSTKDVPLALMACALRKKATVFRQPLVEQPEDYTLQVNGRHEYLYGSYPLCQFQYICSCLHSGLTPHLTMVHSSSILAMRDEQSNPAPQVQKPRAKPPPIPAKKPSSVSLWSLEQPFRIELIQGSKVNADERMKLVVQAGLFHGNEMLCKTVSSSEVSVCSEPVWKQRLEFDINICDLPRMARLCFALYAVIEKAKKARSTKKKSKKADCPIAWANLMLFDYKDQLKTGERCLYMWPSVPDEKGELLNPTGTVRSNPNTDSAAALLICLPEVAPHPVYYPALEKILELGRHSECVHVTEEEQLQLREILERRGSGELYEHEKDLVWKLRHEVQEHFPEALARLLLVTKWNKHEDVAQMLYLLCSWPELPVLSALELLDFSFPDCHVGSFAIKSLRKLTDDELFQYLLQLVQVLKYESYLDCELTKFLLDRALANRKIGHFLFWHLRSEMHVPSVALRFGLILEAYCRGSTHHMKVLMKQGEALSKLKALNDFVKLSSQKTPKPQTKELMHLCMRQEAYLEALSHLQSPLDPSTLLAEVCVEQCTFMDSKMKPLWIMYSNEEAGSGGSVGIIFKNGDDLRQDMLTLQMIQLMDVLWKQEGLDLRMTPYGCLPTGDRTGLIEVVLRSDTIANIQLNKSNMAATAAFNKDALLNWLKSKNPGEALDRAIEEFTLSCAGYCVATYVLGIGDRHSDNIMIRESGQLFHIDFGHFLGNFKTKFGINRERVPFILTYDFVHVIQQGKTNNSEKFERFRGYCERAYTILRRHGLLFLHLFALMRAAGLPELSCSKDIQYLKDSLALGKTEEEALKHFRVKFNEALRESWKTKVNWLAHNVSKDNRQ

Consider `CN1CCN(C(=O)c2cccc(-c3ncnc4ccc(-c5ccc(S(N)(=O)=O)c(C(F)(F)F)c5)cc34)c2)CC1` [Example 46], for which the IC50 in experiment [1] stood at 23.5 nM; in experiment [2] it was 5300 nM.
The like results for `CN1CCN(C(=O)c2cccc(-c3ncnc4ccc(-c5cc(NS(C)(=O)=O)cc(C(F)(F)F)c5)cc34)c2)CC1` [Example 47] were, in that order, 27 nM and greater than 9100 nM.
Consider `CN1CCN(C(=O)c2cccc(-c3ncnc4ccc(-c5ccc(NS(C)(=O)=O)c(C(F)(F)F)c5)cc34)c2)CC1` [Example 48], for which the IC50 came to 47.5 nM in experiment [1] and 3800 nM in experiment [2].
The like results for `COc1ccc(-c2ccc3ncnc(-c4cccc(C(=O)N5CCN(C)CC5)c4)c3c2)cc1C(=O)N(C)C` [Example 49, 2-Methoxy-N,N-dimethyl-5-{4-[3-(4-methyl-piperazine-1-carbonyl)-phenyl]-quinazolin-6-yl}-benzamide] were, in that order, 35.5 nM and 8950 nM.
The like results for `CC(=O)N1CCN(C(=O)c2cncc(-c3ncnc4ccc(-c5cncc(C(F)(F)F)c5)cc34)c2)CC1` [Example 50, 1-(4-{5-[6-(5-Trifluoromethyl-pyridin-3-yl)-quinazolin-4-yl]-pyridine-3-carbonyl}-piperazin-1-yl)-ethanone] were, in that order, 10.5 nM and 319 nM.
Turning to `COc1ncc(-c2ccc3ncnc(-c4cncc(C(=O)N5CCN(C(C)=O)CC5)c4)c3c2)cc1F` [Example 51], the results for the IC50 in experiment [1] and in experiment [2] were 3.5 nM and 118 nM, respectively.
For the compound `COc1ccc(-c2ccc3ncnc(-c4cncc(C(=O)N5CCN(C(C)=O)CC5)c4)c3c2)cn1` [Example 52], the values for the IC50 in experiment [1] and in experiment [2] were 7.5 nM and 189 nM, respectively.
The like results for `COc1ncc(-c2ccc3ncnc(-c4cncc(C(=O)N5CCN(C(C)=O)CC5)c4)c3c2)cc1C#N` [Example 53] were, in that order, 7 nM and 472 nM.
For `COc1ncc(-c2ccc3ncnc(-c4cncc(C(=O)N5CCN(C(C)=O)CC5)c4)c3c2)cc1C(F)(F)F` [Example 54] the same measures were 3 nM and 69 nM.
On to `COc1ncc(-c2ccc3ncnc(-c4cncc(C(=O)N5CCN(C)CC5)c4)c3c2)cc1F` [Example 55], for which the IC50 in experiment [1] came to 9.25 nM; in experiment [2], 193 nM.
For the compound `COc1ncc(-c2ccc3ncnc(-c4cncc(C(=O)N5CCN(C)CC5)c4)c3c2)cc1C#N` [Example 56], the IC50 in experiment [1] is 11 nM; in experiment [2] it was 542 nM.
The like results for `COc1ccc(-c2ccc3ncnc(-c4cncc(C(=O)N5CCN(C)CC5)c4)c3c2)cc1C(F)(F)F` [Example 58] were, in that order, 5.5 nM and 646 nM.
For `COc1ncc(-c2ccc3ncnc(-c4cncc(C(=O)N5CCN(C)CC5)c4)c3c2)cn1` [Example 59], the IC50 is 31.5 nM in experiment [1] and 1710 nM in experiment [2].
The like results for `CN1CCN(C(=O)c2cncc(-c3ncnc4ccc(-c5cnc(N)nc5)cc34)c2)CC1` [Example 60] were, in that order, 19.5 nM and 657 nM.
As to `COc1ncc(-c2ccc3ncnc(-c4cncc(C(=O)N5CCOC(C)(C)C5)c4)c3c2)cc1C(F)(F)F` [Example 61], the figures for the IC50 in experiment [1] and in experiment [2] were 3 nM and 390 nM, respectively.
As for `COc1ncc(-c2ccc3ncnc(-c4cncc(C(=O)N5CCOC(C)(C)C5)c4)c3c2)cc1C#N` [Example 62], the IC50 in experiment [1] was 7 nM; in experiment [2], 1150 nM.
For `COc1ncc(-c2ccc3ncnc(-c4cncc(C(=O)N5CCOC(C)(C)C5)c4)c3c2)cc1F` [Example 63], the half-inhibitory concentration (IC50) in experiment [1] is 6 nM; in experiment [2], 505 nM.
On to `CC1(C)CN(C(=O)c2cncc(-c3ncnc4ccc(-c5cncc(S(C)(=O)=O)c5)cc34)c2)CCO1` [Example 64], for which the IC50 was determined as 11 nM in experiment [1] and 583 nM in experiment [2].
The like results for `COc1ccc(-c2ccc3ncnc(-c4cncc(C(=O)N5CCOC(C)(C)C5)c4)c3c2)cc1C(F)(F)F` [Example 66] were, in that order, 9.5 nM and 763 nM.
The like results for `COc1ccc(-c2ccc3ncnc(-c4cncc(C(=O)N5CCOC(C)(C)C5)c4)c3c2)cn1` [Example 67] were, in that order, 7 nM and 306 nM.
For `COc1ncc(-c2ccc3ncnc(-c4cncc(C(=O)N5CCOCC5)c4)c3c2)cc1C(F)(F)F` [Example 68] the same measures were 3 nM and 97 nM.
As for `COc1ncc(-c2ccc3ncnc(-c4cncc(C(=O)N5CCOCC5)c4)c3c2)cc1C#N` [Example 69], the IC50 amounted to 8 nM in experiment [1] and 880 nM in experiment [2].
`COc1ncc(-c2ccc3ncnc(-c4cncc(C(=O)N5CCOCC5)c4)c3c2)cn1` [Example 70]: the figures for the IC50 in experiment [1] and in experiment [2] were 30 nM and 1030 nM, respectively.
The like results for `COc1ncc(-c2ccc3ncnc(-c4cncc(C(=O)N5CCS(=O)(=O)CC5)c4)c3c2)cc1C#N` [Example 71] were, in that order, 8 nM and 550 nM.
For `COc1ncc(-c2ccc3ncnc(-c4cncc(C(=O)N5CCN(C)C(C)(C)C5)c4)c3c2)cc1C` [Example 72] the same measures were 3 nM and 69.5 nM.
For `COc1ncc(-c2ccc3ncnc(-c4cncc(C(=O)N5CCN(C)C(C)(C)C5)c4)c3c2)cc1F` [Example 73] the same measures were less than 3 nM and 60.5 nM.
For `COc1ncc(-c2ccc3ncnc(-c4cncc(C(=O)N5CCN(C)C(C)(C)C5)c4)c3c2)cc1C(F)(F)F` [Example 74], the IC50 worked out at 5 nM in experiment [1] and 150 nM in experiment [2].
For `COc1ccc(-c2ccc3ncnc(-c4cncc(C(=O)N5CCCN(C)CC5)c4)c3c2)cn1` [Example 76, {5-[6-(6-Methoxy-pyridin-3-yl)-quinazolin-4-yl]-pyridine-3-yl}-(4-methyl-[1,4]-diazepan-1-yl)-methanone] the same measures were 23.5 nM and 578 nM.
On to `COc1ccc(-c2ccc3ncnc(-c4cncc(C(=O)N5C[C@@H]6C[C@H]5CN6C)c4)c3c2)cn1` [Example 77, {5-[6-(6-Methoxy-pyridin-3-yl)-quinazolin-4-yl]-pyridin-3-yl}-((1S,4S)-5-methyl-2,5-diaza-bicyclo[2.2.1]hept-2-yl)-methanone], for which the IC50 in experiment [1] is 14 nM; in experiment [2], 573 nM.
For the compound `COc1ccc(-c2ccc3ncnc(-c4cncc(C(=O)N5CCN(C)C(C)(C)C5)c4)c3c2)cn1` [Example 78, {5-[6-(6-Methoxy-pyridin-3-yl)-quinazolin-4-yl]-pyridin-3-yl}-(3,3,4-trimethyl-piperazin-1-yl)-methanone], the results for the IC50 in experiment [1] and in experiment [2] were 4.5 nM and 123 nM, respectively.
`COc1ccc(-c2ccc3ncnc(-c4cncc(C(=O)N5CCNC(C)(C)C5)c4)c3c2)cn1` [Example 79, (3,3-Dimethyl-piperazin-1-yl)-{5-[6-(6-methoxy-pyridin-3-yl)-quinazolin-4-yl]-pyridin-3-yl}-methanone]: the IC50 in experiment [1] is 10 nM; in experiment [2], 360 nM.
For `COc1ccc(-c2ccc3ncnc(-c4cncc(C(=O)N5CC(C)NC(C)C5)c4)c3c2)cc1C(F)(F)F` (centres unmarked) [Example 80, (3,5-Dimethyl-piperazin-1-yl)-{5-[6-(4-methoxy-3-trifluoromethyl-phenyl)-quinazolin-4-yl]-pyridin-3-yl}-methanone] the same measures were 10.5 nM and 717 nM.
The like results for `COc1ccc(-c2ccc3ncnc(-c4cncc(C(=O)N5CCOCC5)c4)c3c2)cc1C(F)(F)F` [Example 82, {5-[6-(4-Methoxy-3-trifluoromethyl-phenyl)-quinazolin-4-yl]-pyridin-3-yl}-morpholin-4-yl-methanone] were, in that order, 21.5 nM and 1330 nM.
Consider `COc1ccc(-c2ccc3ncnc(-c4cncc(C(=O)N5CCNCC(F)(F)C5)c4)c3c2)cc1C(F)(F)F` [Example 83, (6,6-Difluoro-[1,4]diazepan-1-yl)-{5-[6-(4-methoxy-3-trifluoromethyl-phenyl)-quinazolin-4-yl]-pyridin-3-yl}-methanone], for which the results for the half-maximal inhibitory concentration (IC50) in experiment [1] and in experiment [2] were 21 nM and 904 nM, respectively.
For `COc1ccc(-c2ccc3ncnc(-c4cncc(C(=O)N5CCNC[C@@H]5C)c4)c3c2)cc1C(F)(F)F` [Example 84, {5-[6-(4-Methoxy-3-trifluoromethyl-phenyl)-quinazolin-4-yl]-pyridin-3-yl}-((S)-2-methyl-piperazin-1-yl)-methanone] the same measures were 9.5 nM and 558 nM.
The like results for `COc1ccc(-c2ccc3ncnc(-c4cncc(C(=O)N5C[C@@H]6C[C@H]5CN6)c4)c3c2)cc1C(F)(F)F` [Example 85, (1S,4S)-2,5-Diaza-bicyclo[2.2.1]hept-2-yl-{5-[6-(4-methoxy-3-trifluoromethyl-phenyl)-quinazolin-4-yl]-pyridin-3-yl}-methanone] were, in that order, 7 nM and 793 nM.
For `CCN1CCN(C(=O)c2cccc(-c3ncnc4ccc(-c5ccc(OC)nc5)cc34)c2)CC1` [Example 86, (4-Ethyl-piperazin-1-yl)-{3-[6-(6-methoxy-pyridin-3-yl)-quinazolin-4-yl]-phenyl}-methanone] the same measures were 15.5 nM and 380 nM.
